Data reported in patent publication US4621081A, “Cephalosporin antibiotics” (Glaxo Group Limited, priority 1978, dated 1986).

Assays:
[1] = General (broad spectrum) antibiotic activity; assay type: cell-based
gram-negative bacteria = assay: Experimental infections in mice with gram-negative bacteria; assay type: in vivo
strains of Pseudomonas = assay: Activity against strains of Pseudomonas; assay type: cell-based
[2] = Serum levels and serum half-life in primates after intramuscular injection; assay type: in vivo
[3] = Effect of increased inocula; assay type: cell-based
[4] = Acute toxicity tests in mice; settings: mouse, in vivo
[5] = Distribution in the bodies of small rodents after subcutaneous injection; assay type: in vivo
[6] = system: strains of Staphylococcus aureas; assay: Activity against strains of Staphylococcus aureas; assay type: cell-based
[7] = Effect of human serum on antibacterial properties; assay type: cell-based
[8] = Bactericidal action relative to minimum inhibitory concentration; assay type: cell-based
[9] = system: strains of Pseudomonas aeruginosa; assay: Experimental infections in mice with strains of Pseudomonas aeruginosa; assay type: in vivo; settings: experimental infection
Nephrotoxicity in rats = assay type: in vivo; settings: dosages of 2.0 g/kg

| SMILES | general antibiotic properties / antibiotic activity [1] | treatment of experimental infections in mice with gram-negative bacteria (gram-negative bacteria) | activity against strains of Pseudomonas (strains of Pseudomonas) | half-life in man (probability, from serum half-life in primates) ([2]; man, inferred from serum half-life in primates) | serum levels in primates ([2]; primates, intramuscular injection) | effect of increased inocula against the compound [3] | LD50 [4] [mg/kg] | distribution in the bodies of small rodents [5] | therapeutic levels in small rodents [5] | activity against strains of Staphylococcus aureas [6] | antibacterial properties impaired by human serum [7] | bactericidal at concentrations close to the minimum inhibitory concentration [8] | protection against strains of Pseudomonas aeruginosa [9] | protection compared with the treatment with an aminoglycoside such as amikacin ([9]; versus an aminoglycoside such as amikacin) | nephrotoxicity in rats (Nephrotoxicity in rats) |
| --- | --- | --- | --- | --- | --- | --- | --- | --- | --- | --- | --- | --- | --- | --- | --- |
| C[n+]1ccc(SCC2=C(C(=O)[O-])N3C(=O)[C@@H](NC(=O)/C(=N\OC(C)(C)C(=O)O)c4csc(N)n4)[C@H]3SC2)cc1 [(6R,7R)-7-[(Z)-2-(2-aminothiazol-4-yl)-2-(2-carboxyprop-2-oxyimino)acetamido]-3-[(1-methylpyridinium-4-yl)-thiomethyl]ceph-3-em-4-carboxylate] | not dissimilar properties to the compound of formula (Ib) |  |  |  |  |  |  |  |  |  |  |  |  |  |  |
| C[n+]1ccc(SCC2=C(C(=O)[O-])N3C(=O)[C@@H](NC(=O)/C(=N\OC4(C(=O)O)CCC4)c4csc(N)n4)[C@H]3SC2)cc1 [compound of formula (Ib), (6R,7R)-7-[(Z)-2-(2-aminothiazol-4-yl)-2-(1-carboxycyclobut-1-oxyimino)acetamido]-3-[(1-methylpyridinium-4-yl)-thiomethyl]ceph-3-em-4-carboxylate] | possesses to an outstanding extent the general antibiotic properties | successfully treated | excellent activity | comparatively long half-life | high and long lasting serum levels | low | > 1000 | well distributed | useful therapeutic levels | useful activity | not impaired | rapidly bactericidal | excellent protection | comparable | No nephrotoxicity was observed |
